Results reported in patent US12318380B2, “Treatment of demyelinating diseases” (priority 2018, dated 2025).
Where a name gives a salt, the structure may show the parent alone. Read-outs that look alike come from different tables or passages of the source.

Columns and labels:
EAE model = settings: 10 mg/kg starting at the time of immunization; cited from earlier work
[1] = tested on: lymphocyte populations in the spleen; assay: Splenocyte flow cytometry in chronic phase of EAE; assay type: in vivo, female C57BL/6 mice; settings: 0.01 mg/kg i.p. daily from disease onset; 27 days post treatment initiation
[2] = tested on: cuprizone demyelination disease model of MS; assay: von Frey mechanical withdrawal threshold in cuprizone model; assay type: in vivo, female C57BL/6 mice; settings: 0.1 mg/kg/i.p. daily from day 28 or 35
[3] = tested on: myelin in spinal cord of EAE mice; assay: Luxol fast blue staining of spinal cord in EAE; assay type: in vivo, female C57BL/6 mice; settings: chronic phase
[4] = tested on: infiltrating immune cells (CD45high) in the brain; assay: Immune cell infiltration into the brain in EAE (flow cytometry); assay type: in vivo, female C57BL/6 mice
[5] = tested on: leucocyte infiltration into the spinal cord; assay: H&E staining of spinal cord for leucocyte infiltration in EAE; assay type: in vivo, female C57BL/6 mice; settings: 0.01 mg/kg i.p. daily from disease onset; chronic phase
[6] = tested on: cuprizone model of demyelination; assay: Rotarod assay in cuprizone model of demyelination; assay type: in vivo, female C57BL/6 mice; settings: 0.1 mg/kg i.p. daily from week 4
Morphine induced scratch = settings: SC; Winfuran assessment report EMA/CHMP/138212/2014; cited from earlier work
[7] = biological target: T1, kappa opioid receptor (KOR) (Mus musculus, UniProt P33534); assay: EAE with KOR antagonist norBNI; assay type: in vivo, female C57BL/6 mice
T1 construct: from tissue; host or cells: whole animal: female C57BL/6 mice (EAE model)

[8] = tested on: myelin in corpus callosum of cuprizone-treated mice; assay: TEM of corpus callosum in cuprizone model (g-ratio, myelinated axons, myelin area); assay type: in vivo, female C57BL/6 mice
[9] = tested on: myelin in spinal cord of EAE mice; assay: TEM of spinal cord sections in EAE; assay type: in vivo, female C57BL/6 mice; settings: 0.03 mg/kg i.p. daily from day 17; day 45
[10] = tested on: activated GFAP+ astrocytes in the spinal cord; assay: GFAP immunohistochemistry of spinal cord in EAE; assay type: in vivo, female C57BL/6 mice; settings: 0.01 mg/kg i.p. daily from day 17; day 45
[11] = tested on: Substance P induced scratch; settings: cited from earlier work
EAE-induced weight loss = assay type: in vivo, female C57BL/6 mice; settings: 0.3, 0.1 or 0.03 mg/kg i.p. daily from day 17
[12] = Weight change in cuprizone model of demyelination; assay type: in vivo, female C57BL/6 mice
itch = settings: in vivo; cited from earlier work
[13] = tested on: Histamine induced scratch; settings: PO; Togashi et al. (2002); cited from earlier work
[14] = 0.1 mg/kg/i.p. daily from day 28, day 70
[15] = nalfurafine 0.1 mg/kg/i.p. or U-50488 1.6 mg/kg/i.p. daily from day 28, day 70
[16] = norBNI 10 mg/kg i.p. weekly with nalfurafine 0.01 mg/kg i.p. daily

T1 sequence (P33534 whole entry): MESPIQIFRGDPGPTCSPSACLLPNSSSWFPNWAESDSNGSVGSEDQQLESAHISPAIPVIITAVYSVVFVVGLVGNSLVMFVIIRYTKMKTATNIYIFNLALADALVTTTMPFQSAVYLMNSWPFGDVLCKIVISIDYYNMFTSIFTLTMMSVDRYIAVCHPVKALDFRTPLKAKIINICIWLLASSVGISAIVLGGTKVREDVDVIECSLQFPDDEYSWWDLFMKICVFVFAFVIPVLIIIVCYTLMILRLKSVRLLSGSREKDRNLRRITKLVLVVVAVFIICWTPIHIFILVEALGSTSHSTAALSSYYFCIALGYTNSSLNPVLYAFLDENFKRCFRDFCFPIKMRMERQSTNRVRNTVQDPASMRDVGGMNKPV

CN1CCC[C@@H]1CCO[C@](C)(c1ccccc1)c1ccc(Cl)cc1 [clemastine fumarate]
chronic disability in the EAE model (EAE model): has been shown to reduce chronic disability in the EAE model

CN(C(=O)/C=C/c1ccoc1)[C@@H]1CC[C@@]2(O)[C@H]3Cc4ccc(O)c5c4[C@@]2(CCN3CC2CC2)[C@H]1O5 [nalfurafine, (E)-N-[(4R,4aS,7R,7aR,12bS)-3-(cyclopropylmethyl)-4a,9-dihydroxy-1,2,4,5,6,7,7a,13-octahydro-4,12-methanobenzofuro[3,2-e]isoquinoline-7-yl]-3-(furan-3-yl)-N-methylprop-2-enamide]
Teff:cm ratio (effector to central memory CD4 T cells) [1]: reduced ratio in the nalfurafine-treated compared to the vehicle-treated mice | overall number of CD4 T cells in spleen [1]: the same between nalfurafine and vehicle treated mice | proportion of major lymphocyte populations in spleen (% live leukocytes) [1]: do not alter the proportion of the major lymphocyte populations in the spleen | mechanical threshold scores vs vehicle [2]: improved mechanical threshold scores compared to vehicle treated mice | mechanical withdrawal threshold, pre vs post treatment [2]: reduced to baseline levels | lesion load and myelin density in ventral horn (luxol fast blue) ([3]; 0.01 mg/kg i.p. daily from disease onset): reduces this lesion load and demyelination | % demyelination of spinal cord (luxol fast blue) ([3]; 0.03 or 0.01 mg/kg i.p. daily from disease onset): significant reduction in the percentage of demyelination | number of infiltrating immune cells in brain (ratio to microglia) ([4]; 0.03 mg/kg i.p. daily from day 17, day 45): significantly reduced the number of infiltrating immune cells | number of infiltrating immune cells in brain (ratio to microglia) ([4]; 0.03 and 0.01 mg/kg i.p. daily from disease onset, chronic phase (>24 days)): significantly reduced the number of infiltrating immune cells | leucocyte infiltration score (0-3), H&E [5]: surprising reduction of infiltrating leucocytes | rotarod performance at week 9 relative to week 5 [6]: Cuprizone-induced disability was reversed | Complete Inhibition (Morphine induced scratch): 5 to 10 µg/kg | disease reduction in the presence of norBNI ([7]; nalfurafine 0.01 mg/kg i.p. daily with norBNI 10 mg/kg i.p. weekly): effective at reducing disease independently of the KOR | myelin in corpus callosum (TEM) ([8]; 0.1 mg/kg i.p. daily from week 4, day 65 (Example 9)): more myelin was detected, and the structure was less disorganized | area of myelination [8, 14]: percentage increase in area of myelination | number of myelinated axons [8, 14]: percentage increase in the number of myelinated axons | axonal-myelin ultrastructure, repair [8, 15]: surprisingly similar to that of the naïve (normal) tissue | mean g-ratio [8, 15]: 0.75±0.15 | myelination of nerve axons in spinal cord (TEM) [9]: nerve axons appear healthy and well-myelinated | number of activated GFAP+ astrocytes per section [10]: significantly reduces the number of activated astrocytes | Complete Inhibition ([11]; IV, Winfuran assessment report EMA/CHMP/138212/2014): 7.5-10^ μg/kg | Inhibition printed in brackets beside the dose ([11]; PO, 100 μg/kg, Winfuran assessment report EMA/CHMP/138212/2014): 66% | Complete Inhibition ([11]; PO, Togashi et al. (2002)): 100 µg/kg | Complete Inhibition ([11]; PO, Winfuran assessment report EMA/CHMP/138212/2014): 100 µg/kg | Complete Inhibition ([11]; SC, Winfuran assessment report EMA/CHMP/138212/2014): 10 µg/kg | % change in body weight (EAE-induced weight loss): mice recover from EAE-induced weight loss | % weight change ([12]; 0.3% cuprizone 5 weeks, 0.1 mg/kg i.p. daily from week 4, 65 days (Example 7)): reversed significantly more effectively by administration of nalfurafine than vehicle alone | % weight change in recovery phase ([12]; 0.3% cuprizone 35 days, nalfurafine 0.1 mg/kg or U-50488 1.6 mg/kg i.p. daily from day 28 (Example 28)): enhances recovery of the lost weight faster | effective dose in humans for itch (itch): 2.5 μg/body/day | ED50 [13]: 7.3 µg/kg

Oc1ccc2c3c1O[C@H]1c4[nH]c5c(c4C[C@@]4(O)[C@@H](C2)N(CC2CC2)CC[C@]314)C[C@@]1(O)[C@H]2Cc3ccc(O)c4c3[C@@]1(CCN2CC1CC1)[C@H]5O4 [norBNI]
disease score, full recovery (score <0.5) [7, 16]: abolishes the ability of nalfurafine to enable full recovery from paralysis | percentage recovered and number of days in recovery [7, 16]: abolishes the ability of nalfurafine to enable and sustain recovery from paralysis
